How the values were obtained:
Conditions in all cases: incubation time: 72 h
CAL-120 [1] = assay: normalised viability (% of control), CellTiter-Blue; higher = more viable cells (about 100 = DMSO control)
How it was run: (§1)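 Breast cancer cell lines were treated for 72 h in 384-well format and measured by CellTiter-Blue fluorescence at 560/590 nm. Results were normalised per plate to vehicle (100) and a positive kill control (0). The entry is normalised viability at a single listed concentration of the series.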

HDQ-P1 [2] = assay: as above
How it was run: as §1

CAL-148 [3] = assay: normalised viability (% of control), CellTiter-Blue; higher = more viable cells (about 100 = DMSO control)
Experimental: (§2)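 DSRT, CellTiter-Blue viability, 72 h incubation. Signal is normalised to DMSO and benzethonium chloride controls. Value is the normalised response at dose 9.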

CAL-51 [4] = assay: as above
Experimental: as §2

CAL-85-1 [5] = assay: as above
Experimental: as §2

DU-4475 [6] = assay: as above
Experimental: as §2

HDQ-P1 [7] = assay: as above; remark: listed apart in the source
Experimental: as §2

MDA-MB-453 [8] = assay: as above
Experimental: as §2

BT-474 = assay: normalised viability (% of control), CellTiter-Blue; higher = more viable cells (100 = DMSO, 0 = benzethonium chloride kill control)
Experimental: (§3)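 DSRT, CellTiter-Blue viability, 72 h incubation. Signal is normalised to DMSO and benzethonium chloride controls. Value is the normalised response at dose 1.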

BT-549 = assay: as above
Experimental: as §3

CAL-120 [9] = assay: as above
Experimental: as §3

CAL-148 [10] = assay: as above
Experimental: as §3

CAL-51 [11] = assay: as above
Experimental: as §3

CAL-85-1 [12] = assay: as above
Experimental: as §3

DU-4475 [13] = assay: as above
Experimental: as §3

HCC1143 = assay: as above
Experimental: as §3

HCC1599 = assay: as above
Experimental: as §3

HCC1937 = assay: as above
Experimental: as §3

HDQ-P1 [14] = assay: as above
Experimental: as §3

Hs578T = assay: as above
Experimental: as §3

MDA-MB-231 = assay: as above
Experimental: as §3

MDA-MB-436 = assay: as above
Experimental: as §3

MDA-MB-453 [15] = assay: as above
Experimental: as §3

MDA-MB-468 = assay: as above
Experimental: as §3

MFM-223 = assay: as above
Experimental: as §3

SK-BR-3 = assay: as above
Experimental: as §3

CAL-148 [16] = assay: drug sensitivity score (DSS), CellTox Green (DSS (AUC-based score)); higher = stronger drug effect (viability inhibition or cytotoxicity); extreme values may be limits of the assay
How it was run: (§4)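 Breast cancer cells were seeded into 384-well plates containing compound at 5 concentrations in 10-fold steps over a compound-specific 10,000-fold range and incubated 72 h. After CellTox Green and CellTiter-Glo readings, each plate was normalised to 0.1 % DMSO and a positive kill control. The drug sensitivity score rests on the area under the fitted dose-response curve.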

DU-4475 [17] = assay: as above
How it was run: as §4

C/C(=C\c1csc(C)n1)[C@@H]1C[C@@H]2O[C@]2(C)CCC[C@H](C)[C@H](O)[C@@H](C)C(=O)C(C)(C)[C@@H](O)CC(=O)O1 [Patupilone]
normalised viability (CAL-120 [1]; 100 nM): 23.2% | normalised viability (HDQ-P1 [2]; 3 nM): 107% | normalised viability (CAL-148 [3]; 1000 nM): 19.9% | normalised viability (CAL-51 [4]; 1000 nM): 13.6% | normalised viability (CAL-85-1 [5]; 1000 nM): 30.3% | normalised viability (DU-4475 [6]; 1000 nM): 2.77% | normalised viability (HDQ-P1 [7]; 1000 nM): 55.1% | normalised viability (MDA-MB-453 [8]; 1000 nM): 20.9% | normalised viability (BT-474; 0.1 nM): 97.7% | normalised viability (BT-549; 0.1 nM): 113% | normalised viability (CAL-120 [9]; 0.1 nM): 94.6% | normalised viability (CAL-148 [10]; 0.1 nM): 105% | normalised viability (CAL-51 [11]; 0.1 nM): 102% | normalised viability (CAL-85-1 [12]; 0.1 nM): 93.4% | normalised viability (DU-4475 [13]; 0.1 nM): 98.7% | normalised viability (HCC1143; 0.1 nM): 102% | normalised viability (HCC1599; 0.1 nM): 97.3% | normalised viability (HCC1937; 0.1 nM): 95.6% | normalised viability (HDQ-P1 [14]; 0.1 nM): 112% | normalised viability (Hs578T; 0.1 nM): 118% | normalised viability (MDA-MB-231; 0.1 nM): 129% | normalised viability (MDA-MB-436; 0.1 nM): 116% | normalised viability (MDA-MB-453 [15]; 0.1 nM): 97.5% | normalised viability (MDA-MB-468; 0.1 nM): 101% | normalised viability (MFM-223; 0.1 nM): 104% | normalised viability (SK-BR-3; 0.1 nM): 102% | drug sensitivity score (CAL-148 [16]): 8.8 | drug sensitivity score (DU-4475 [17]): 0

CN(C)CCN1C(=O)c2cccc3cc(N)cc(c23)C1=O [Amonafide]
normalised viability (CAL-120 [1]; 1000 nM): 78.7% | normalised viability (HDQ-P1 [2]; 30 nM): 104% | normalised viability (CAL-148 [3]; 10000 nM): 8.2% | normalised viability (CAL-51 [4]; 10000 nM): 6.12% | normalised viability (CAL-85-1 [5]; 10000 nM): 27.6% | normalised viability (DU-4475 [6]; 10000 nM): 1.19% | normalised viability (HDQ-P1 [7]; 10000 nM): 45.5% | normalised viability (MDA-MB-453 [8]; 10000 nM): 20.4% | normalised viability (BT-474; 1 nM): 103% | normalised viability (BT-549; 1 nM): 94.4% | normalised viability (CAL-120 [9]; 1 nM): 78.7% | normalised viability (CAL-148 [10]; 1 nM): 89.9% | normalised viability (CAL-51 [11]; 1 nM): 107% | normalised viability (CAL-85-1 [12]; 1 nM): 90% | normalised viability (DU-4475 [13]; 1 nM): 99.6% | normalised viability (HCC1143; 1 nM): 83.7% | normalised viability (HCC1599; 1 nM): 88.2% | normalised viability (HCC1937; 1 nM): 108% | normalised viability (HDQ-P1 [14]; 1 nM): 105% | normalised viability (Hs578T; 1 nM): 121% | normalised viability (MDA-MB-231; 1 nM): 93.1% | normalised viability (MDA-MB-436; 1 nM): 102% | normalised viability (MDA-MB-453 [15]; 1 nM): 87.3% | normalised viability (MDA-MB-468; 1 nM): 110% | normalised viability (MFM-223; 1 nM): 93% | normalised viability (SK-BR-3; 1 nM): 101% | drug sensitivity score (CAL-148 [16]): 2.89 | drug sensitivity score (DU-4475 [17]): 0

O=C1NC(=O)[C@@H](c2cn3c4c(cccc24)CCC3)[C@@H]1c1c[nH]c2ccccc12 [Tivantinib]
normalised viability (CAL-120 [1]; 100 nM): 79.8% | normalised viability (HDQ-P1 [2]; 3 nM): 120% | normalised viability (CAL-148 [3]; 1000 nM): 30.5% | normalised viability (CAL-51 [4]; 1000 nM): 21.1% | normalised viability (CAL-85-1 [5]; 1000 nM): 33.9% | normalised viability (DU-4475 [6]; 1000 nM): 36.9% | normalised viability (HDQ-P1 [7]; 1000 nM): 53% | normalised viability (MDA-MB-453 [8]; 1000 nM): 31% | normalised viability (BT-474; 0.1 nM): 128% | normalised viability (BT-549; 0.1 nM): 105% | normalised viability (CAL-120 [9]; 0.1 nM): 90.1% | normalised viability (CAL-148 [10]; 0.1 nM): 110% | normalised viability (CAL-51 [11]; 0.1 nM): 106% | normalised viability (CAL-85-1 [12]; 0.1 nM): 101% | normalised viability (DU-4475 [13]; 0.1 nM): 107% | normalised viability (HCC1143; 0.1 nM): 108% | normalised viability (HCC1599; 0.1 nM): 85.6% | normalised viability (HCC1937; 0.1 nM): 86.3% | normalised viability (HDQ-P1 [14]; 0.1 nM): 83.2% | normalised viability (Hs578T; 0.1 nM): 101% | normalised viability (MDA-MB-231; 0.1 nM): 111% | normalised viability (MDA-MB-436; 0.1 nM): 127% | normalised viability (MDA-MB-453 [15]; 0.1 nM): 101% | normalised viability (MDA-MB-468; 0.1 nM): 110% | normalised viability (MFM-223; 0.1 nM): 85.6% | normalised viability (SK-BR-3; 0.1 nM): 95% | drug sensitivity score (CAL-148 [16]): 7.13 | drug sensitivity score (DU-4475 [17]): 0

CN1CCN(CCOc2cc(OC3CCOCC3)c3c(Nc4c(Cl)ccc5c4OCO5)ncnc3c2)CC1 [Saracatinib]
normalised viability (CAL-120 [1]; 1000 nM): 71.9% | normalised viability (HDQ-P1 [2]; 30 nM): 107% | normalised viability (CAL-148 [3]; 10000 nM): 62% | normalised viability (CAL-51 [4]; 10000 nM): 38.4% | normalised viability (CAL-85-1 [5]; 10000 nM): 23.5% | normalised viability (DU-4475 [6]; 10000 nM): 133% | normalised viability (HDQ-P1 [7]; 10000 nM): 21.9% | normalised viability (MDA-MB-453 [8]; 10000 nM): 35.6% | normalised viability (BT-474; 1 nM): 93.9% | normalised viability (BT-549; 1 nM): 89.4% | normalised viability (CAL-120 [9]; 1 nM): 82.4% | normalised viability (CAL-148 [10]; 1 nM): 89.8% | normalised viability (CAL-51 [11]; 1 nM): 106% | normalised viability (CAL-85-1 [12]; 1 nM): 88.7% | normalised viability (DU-4475 [13]; 1 nM): 107% | normalised viability (HCC1143; 1 nM): 80.9% | normalised viability (HCC1599; 1 nM): 97.2% | normalised viability (HCC1937; 1 nM): 99.4% | normalised viability (HDQ-P1 [14]; 1 nM): 113% | normalised viability (Hs578T; 1 nM): 107% | normalised viability (MDA-MB-231; 1 nM): 85.5% | normalised viability (MDA-MB-436; 1 nM): 122% | normalised viability (MDA-MB-453 [15]; 1 nM): 105% | normalised viability (MDA-MB-468; 1 nM): 104% | normalised viability (MFM-223; 1 nM): 105% | normalised viability (SK-BR-3; 1 nM): 91.5% | drug sensitivity score (CAL-148 [16]): 0 | drug sensitivity score (DU-4475 [17]): 0
